Laboratory results taken from the NIST ThermoML archive (doi:10.1016/j.jct.2011.01.006).
“And” between values parts separate entries of the source, which are not always exact repeats. Equal entries are not always repeated. Numbers after ± are expanded uncertainties.

Legend:
[1] = Crystal, Calculated from knudsen effusion weight loss
[2] = molar enthalpy of vaporization or sublimation; settings: 298.15 K; Crystal; Ebulliometric method (Recirculating still)

Q: Which “vapor or sublimation pressure” value ([1]; 300.2 K) does the source give for `CC(=O)c1cccc([N+](=O)[O-])c1` [1-(3-nitrophenyl)ethanone] here?
A: The value was 7e-05 ± 4e-06 kPa and 6.8e-05 ± 3e-06 kPa and 6.6e-05 ± 3e-06 kPa.

Q: What about the “vapor or sublimation pressure” value ([1]; 302.18 K) of the same compound?
A: Its value is 8.8e-05 ± 4e-06 kPa and 8.9e-05 ± 4e-06 kPa.

Q: And the “vapor or sublimation pressure” value ([1]; 304.08 K)?
A: The value was 0.000113 ± 6e-06 kPa and 0.000115 ± 6e-06 kPa.

Q: And the “vapor or sublimation pressure” value ([1]; 306.2 K)?
A: Its value is 0.000149 ± 7e-06 kPa and 0.000148 ± 7e-06 kPa and 0.000152 ± 8e-06 kPa.

Q: And the “vapor or sublimation pressure” value ([1]; 308.16 K)?
A: The value was 0.000192 ± 1e-05 kPa and 0.000191 ± 1e-05 kPa and 0.000189 ± 9e-06 kPa.

Q: What about the “vapor or sublimation pressure” value ([1]; 310.08 K) of the same compound?
A: The value was 0.000238 ± 1.2e-05 kPa and 0.000241 ± 1.2e-05 kPa and 0.000249 ± 1.2e-05 kPa.

Q: What about the “vapor or sublimation pressure” value ([1]; 312.19 K) of the same compound?
A: Its value is 0.000321 ± 1.6e-05 kPa and 0.000305 ± 1.5e-05 kPa and 0.000302 ± 1.5e-05 kPa.

Q: What about the “vapor or sublimation pressure” value ([1]; 314.15 K) of the same compound?
A: Its value is 0.000404 ± 2e-05 kPa and 0.000392 ± 2e-05 kPa and 0.000387 ± 1.9e-05 kPa.

Q: What about the “vapor or sublimation pressure” value ([1]; 316.08 K) of the same compound?
A: The value was 0.000499 ± 2.5e-05 kPa and 0.000491 ± 2.5e-05 kPa and 0.00049 ± 2.5e-05 kPa.

Q: What about the “vapor or sublimation pressure” value ([1]; 318.18 K) of the same compound?
A: Its value is 0.000669 ± 3.4e-05 kPa and 0.000628 ± 3.1e-05 kPa and 0.000621 ± 3.1e-05 kPa.

Q: What about the “vapor or sublimation pressure” value ([1]; 320.15 K) of the same compound?
A: The value was 0.000817 ± 4.1e-05 kPa and 0.000801 ± 4e-05 kPa and 0.00079 ± 4e-05 kPa.

Q: And the “vapor or sublimation pressure” value ([1]; 322.08 K)?
A: The value was 0.001007 ± 0.0001 kPa and 0.001 ± 5e-05 kPa and 0.000997 ± 5e-05 kPa.

Q: And the molar enthalpy [2]?
A: Its molar enthalpy is 99.1 ± 0.9 kJ/mol.

Q: With `CC(=O)c1ccc([N+](=O)[O-])cc1` [1-(4-nitrophenyl)ethanone] as the compound, how does the “vapor or sublimation pressure” value ([1]; 302.19 K) read?
A: The value was 9.1e-05 ± 5e-06 kPa and 9e-05 ± 5e-06 kPa.

Q: And the “vapor or sublimation pressure” value ([1]; 304.15 K)?
A: The value was 0.000121 ± 6e-06 kPa and 0.000119 ± 6e-06 kPa and 0.000118 ± 6e-06 kPa.

Q: And the “vapor or sublimation pressure” value ([1]; 306.07 K)?
A: The value was 0.000149 ± 7e-06 kPa and 0.000156 ± 8e-06 kPa and 0.000151 ± 8e-06 kPa.

Q: What about the “vapor or sublimation pressure” value ([1]; 306.19 K) of the same compound?
A: The value was 0.000148 ± 7e-06 kPa and 0.000151 ± 8e-06 kPa and 0.000147 ± 7e-06 kPa.

Q: And the “vapor or sublimation pressure” value ([1]; 308.16 K)?
A: The value was 0.000192 ± 1e-05 kPa and 0.000193 ± 1e-05 kPa and 0.00019 ± 1e-05 kPa.

Q: What about the “vapor or sublimation pressure” value ([1]; 310.07 K) of the same compound?
A: Its value is 0.000239 ± 1.2e-05 kPa and 0.000235 ± 1.2e-05 kPa and 0.000243 ± 1.2e-05 kPa.

Q: And the “vapor or sublimation pressure” value ([1]; 312.19 K)?
A: The value was 0.000329 ± 1.6e-05 kPa and 0.000306 ± 1.5e-05 kPa and 0.000304 ± 1.5e-05 kPa.

Q: What about the “vapor or sublimation pressure” value ([1]; 314.16 K) of the same compound?
A: Its value is 0.000402 ± 2e-05 kPa and 0.000397 ± 2e-05 kPa and 0.000392 ± 2e-05 kPa.

Q: What about the “vapor or sublimation pressure” value ([1]; 316.07 K) of the same compound?
A: The value was 0.000494 ± 2.5e-05 kPa and 0.000502 ± 2.5e-05 kPa and 0.000503 ± 2.5e-05 kPa.

Q: What about the “vapor or sublimation pressure” value ([1]; 318.18 K) of the same compound?
A: The value was 0.000657 ± 3.3e-05 kPa and 0.000619 ± 3.1e-05 kPa and 0.000617 ± 3.1e-05 kPa.

Q: What about the “vapor or sublimation pressure” value ([1]; 320.13 K) of the same compound?
A: The value was 0.000795 ± 4e-05 kPa and 0.000792 ± 4e-05 kPa and 0.00078 ± 3.9e-05 kPa.

Q: What about the “vapor or sublimation pressure” value ([1]; 322.06 K) of the same compound?
A: The value was 0.00096 ± 4.8e-05 kPa and 0.000984 ± 4.9e-05 kPa and 0.000991 ± 5e-05 kPa.

Q: And the molar enthalpy [2]?
A: Its molar enthalpy is 97 ± 1.1 kJ/mol.
